This is an account of results in paper PMC8096218, “Global RNA profiles show target selectivity and physiological effects of peptide-delivered antisense antibiotics” (Nucleic Acids Research, 2021).

The experiment concerns acpP mRNA. The experiment is described as follows: Northern blot of acpP transcript levels after PNA treatment. The note with it: 5 μM, 5, 10 or 15 min, 10^6 cfu/ml; two biological replicates. The class given is cell-based, Salmonella enterica serovar Typhimurium. The method, then:
For northern blotting, equal RNA amounts were used for gel electrophoresis (10 μg in Figure 4B; 100–150 ng in Figure 4E) and subsequent transfer to Hybond+ membranes (GE Healthcare Life Sciences). After crosslinking (0,12 J/cm^2), membranes were blocked using ROTI®Hybri-Quick (Roth) and incubated with RNA-specific digoxigenin (DIG; Roche)- or radioactively-labeled (5′ ^32P-labeling ([28])) oligonucleotides. In vitro transcription (MEGAscript T7 polymerase, Ambion), DIG-labeling of probes and northern blot detection was performed according to the manufacturer's instructions. Sequences of all the oligonucleotides (purchased from Eurofins Genomics or Sigma) employed for northern blot probe generation or RT-qPCR are listed in Supplementary Table S2. Signals were visualized on a phosphorimager (Typhoon FLA 7000, GE Healthcare) for radioactive probes, or using an ImageQuant (LAS 4000, GE Healthcare) for DIG-labeled probes.
Bacterial overnight cultures were diluted 1:100 in fresh MHB and grown to OD600 0.5. […]
Figure 4. […] In brief, 10^9 cfu were pelleted for the isolation of RNA, which was subsequently analyzed using (A) a denaturing polyacrylamide gel (1 μg/lane) and (B) northern blotting (10 μg/lane). […] (B) Transcript levels of two sRNAs, SroC and SdhX (SdhX1, SdhX2), and the loading control 5S were detected using sequence specific radioactive-labeled probes. […]

Turning to “KFFKFFKFFK [KFF-acpP, KFF peptide conjugated to 10-mer antisense PNA against the translational start site of acpP]”, the “acpP mRNA levels (northern blot)” value is on record as “rapid decrease of acpP mRNA levels from 5 min post treatment onwards”.
